Literature values as cited in patent publication US20100076037A1, “Methods of Treating Neuropathic Pain with Agonists of PPAR-gamma” (priority 2006, published 2010).

Tests used:
[1] = test system: rats; conditions: intrathecal; cited from earlier work
[2] = cited from earlier work
[3] = biological target: PPARγ (Homo sapiens, UniProt P37231); conditions: ECV304 cell line; cited from earlier work
[4] = test system: rats subjected to spinal cord injury; conditions: given before pioglitazone; cited from earlier work
[5] = 3 or 30 mg/kg; cited from earlier work
[6] = biological target: T1, PPARalpha (Homo sapiens, UniProt Q07869); conditions: first value of the pair given as α/γ; read-out: EC50 for PPARalpha agonism; cited from earlier work
T1 sequence (Q07869 1-468): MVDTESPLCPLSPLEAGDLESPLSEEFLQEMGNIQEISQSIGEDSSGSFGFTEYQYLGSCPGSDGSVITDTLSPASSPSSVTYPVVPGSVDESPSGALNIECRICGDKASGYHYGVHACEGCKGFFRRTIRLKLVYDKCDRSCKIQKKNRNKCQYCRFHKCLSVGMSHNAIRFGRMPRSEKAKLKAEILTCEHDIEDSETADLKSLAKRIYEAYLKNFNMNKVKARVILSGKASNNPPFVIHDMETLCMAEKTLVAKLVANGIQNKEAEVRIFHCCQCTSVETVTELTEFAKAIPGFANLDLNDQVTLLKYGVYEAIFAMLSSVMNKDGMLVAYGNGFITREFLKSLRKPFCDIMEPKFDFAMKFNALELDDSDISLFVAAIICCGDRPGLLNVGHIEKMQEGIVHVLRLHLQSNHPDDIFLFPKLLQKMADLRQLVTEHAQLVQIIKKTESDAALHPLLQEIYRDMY

[7] = biological target: T1, PPARalpha; conditions: U2 OS cells; cited from earlier work
[8] = biological target: T2, mouse (m)PPARgamma (Mus musculus, UniProt P37238); conditions: U2 OS cells, mPPARgamma, cited from earlier work
T2 construct: expressed in transfected cells; host or cells: U2 OS

[9] = biological target: T3, P-glycoprotein (Homo sapiens, UniProt P08183); conditions: cited from earlier work
T3 construct: host or cells: Caco2 and MDCK-MDR1 monolayers (tie to the P-gp statement is grammatically loose)

[10] = test system: multidrug resistance protein 2; conditions: Caco-2; cited from earlier work
[11] = biological target: mPPARalpha (Mus musculus, UniProt P23204); conditions: read-out: EC50 reporter gene assay, U2 OS cells; cited from earlier work
[12] = test system: diabetic patients; conditions: human, in vivo; cited from earlier work

T2 sequence (P37238 whole entry): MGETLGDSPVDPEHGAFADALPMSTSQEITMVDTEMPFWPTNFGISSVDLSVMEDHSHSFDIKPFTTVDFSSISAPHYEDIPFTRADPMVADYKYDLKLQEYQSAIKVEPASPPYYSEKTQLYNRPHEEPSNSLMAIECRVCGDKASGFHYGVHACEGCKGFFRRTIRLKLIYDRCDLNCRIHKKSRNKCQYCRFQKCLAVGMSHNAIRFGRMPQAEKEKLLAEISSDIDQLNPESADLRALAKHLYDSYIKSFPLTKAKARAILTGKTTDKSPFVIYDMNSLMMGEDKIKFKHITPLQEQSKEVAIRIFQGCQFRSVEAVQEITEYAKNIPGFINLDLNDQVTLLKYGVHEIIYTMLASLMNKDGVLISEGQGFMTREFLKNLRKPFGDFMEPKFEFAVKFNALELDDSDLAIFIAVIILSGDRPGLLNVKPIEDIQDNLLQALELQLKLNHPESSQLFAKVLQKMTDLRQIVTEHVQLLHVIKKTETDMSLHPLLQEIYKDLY
Chain of PPARγ (P37231 whole entry, species assumed): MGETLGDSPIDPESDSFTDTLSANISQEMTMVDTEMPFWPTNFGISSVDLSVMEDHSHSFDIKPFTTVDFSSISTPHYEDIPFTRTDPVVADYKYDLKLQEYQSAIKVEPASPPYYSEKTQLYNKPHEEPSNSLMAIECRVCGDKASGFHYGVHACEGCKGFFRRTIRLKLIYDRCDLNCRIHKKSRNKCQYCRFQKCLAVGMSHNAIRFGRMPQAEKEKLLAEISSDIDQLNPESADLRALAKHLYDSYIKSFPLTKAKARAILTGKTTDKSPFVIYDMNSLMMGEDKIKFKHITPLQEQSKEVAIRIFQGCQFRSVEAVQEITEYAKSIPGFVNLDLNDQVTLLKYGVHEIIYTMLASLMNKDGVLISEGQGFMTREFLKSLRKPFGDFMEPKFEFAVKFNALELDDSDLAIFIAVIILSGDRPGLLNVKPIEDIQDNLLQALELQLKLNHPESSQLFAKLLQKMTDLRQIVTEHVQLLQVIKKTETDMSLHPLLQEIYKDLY
Chain of mPPARalpha (P23204 whole entry): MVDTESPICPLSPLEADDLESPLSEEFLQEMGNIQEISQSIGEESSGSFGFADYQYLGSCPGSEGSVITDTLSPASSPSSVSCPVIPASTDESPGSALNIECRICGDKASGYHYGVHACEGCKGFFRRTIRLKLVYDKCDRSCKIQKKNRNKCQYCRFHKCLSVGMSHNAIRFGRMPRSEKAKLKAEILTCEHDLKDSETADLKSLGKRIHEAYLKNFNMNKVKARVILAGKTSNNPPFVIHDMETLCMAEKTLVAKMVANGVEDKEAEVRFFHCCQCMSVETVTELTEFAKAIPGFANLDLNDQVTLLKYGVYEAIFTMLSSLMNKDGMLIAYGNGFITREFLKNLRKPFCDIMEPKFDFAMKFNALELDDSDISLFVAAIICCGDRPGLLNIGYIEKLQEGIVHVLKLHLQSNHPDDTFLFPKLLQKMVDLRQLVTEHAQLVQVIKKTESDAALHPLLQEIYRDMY
T3 sequence (P08183 whole entry): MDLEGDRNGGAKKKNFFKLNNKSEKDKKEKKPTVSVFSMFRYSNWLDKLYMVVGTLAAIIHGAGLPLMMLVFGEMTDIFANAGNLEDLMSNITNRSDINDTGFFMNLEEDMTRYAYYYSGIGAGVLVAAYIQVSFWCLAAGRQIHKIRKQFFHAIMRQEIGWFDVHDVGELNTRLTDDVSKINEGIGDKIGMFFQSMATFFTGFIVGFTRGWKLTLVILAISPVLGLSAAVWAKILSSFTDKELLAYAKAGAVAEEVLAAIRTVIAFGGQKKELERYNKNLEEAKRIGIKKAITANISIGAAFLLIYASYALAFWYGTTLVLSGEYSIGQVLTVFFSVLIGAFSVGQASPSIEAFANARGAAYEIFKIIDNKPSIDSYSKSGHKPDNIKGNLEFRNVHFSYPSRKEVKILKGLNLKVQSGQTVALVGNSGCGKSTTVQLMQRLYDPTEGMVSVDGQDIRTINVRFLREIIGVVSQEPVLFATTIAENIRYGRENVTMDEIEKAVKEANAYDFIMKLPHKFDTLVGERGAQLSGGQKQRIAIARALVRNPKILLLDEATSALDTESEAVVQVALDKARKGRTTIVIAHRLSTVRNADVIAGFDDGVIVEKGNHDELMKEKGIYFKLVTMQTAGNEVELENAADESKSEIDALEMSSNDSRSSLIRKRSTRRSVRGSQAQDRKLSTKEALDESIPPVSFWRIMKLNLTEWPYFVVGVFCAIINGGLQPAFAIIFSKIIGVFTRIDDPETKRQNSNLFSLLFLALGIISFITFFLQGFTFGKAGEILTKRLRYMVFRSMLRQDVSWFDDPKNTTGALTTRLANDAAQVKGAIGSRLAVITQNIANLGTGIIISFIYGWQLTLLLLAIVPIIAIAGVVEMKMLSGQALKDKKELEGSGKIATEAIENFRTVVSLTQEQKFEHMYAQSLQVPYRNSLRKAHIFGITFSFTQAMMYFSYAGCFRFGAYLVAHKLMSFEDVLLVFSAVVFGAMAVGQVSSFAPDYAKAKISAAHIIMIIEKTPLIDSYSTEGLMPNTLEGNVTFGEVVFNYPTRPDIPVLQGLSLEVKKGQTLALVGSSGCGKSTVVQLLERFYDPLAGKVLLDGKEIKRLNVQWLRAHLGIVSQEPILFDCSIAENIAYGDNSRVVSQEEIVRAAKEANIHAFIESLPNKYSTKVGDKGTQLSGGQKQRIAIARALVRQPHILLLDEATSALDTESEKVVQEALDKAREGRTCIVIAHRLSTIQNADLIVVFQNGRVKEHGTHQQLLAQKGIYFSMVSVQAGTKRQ

CCCCC/C=C/C=C1/C(=O)C=C[C@@H]1C/C=C\CCCC(=O)O [15dPGJ2]
pain behavior [1]: reduction in pain behavior
mechanical allodynia (von Frey) ([2]; intrathecal, 7 days post-SNI): dose-dependently reduced

CC(C)(c1ccc(OCC2CO2)cc1)c1ccc(OCC2CO2)cc1 (stereo not drawn) [BADGE, Bisphenol A diglycidyl ether]
effect on the observed anti-allodynic effects of rosiglitazone and 15dPGJ2 ([2]; in vivo): reversed
PPARγ activity [3]: has PPARγ agonist activity

O=C(Nc1ccccc1)c1cc([N+](=O)[O-])ccc1Cl [GW9662, 2-chloro-5-nitro-N-phenylbenzamide]
effect of pretreatment on pioglitazone-induced motor function recovery [4]: completely abolished
threshold (in g) [5]: increased

Cc1oc(-c2ccccc2)nc1CCOc1ccc(CC2C(=O)NOC2=O)cc1 (stereo not drawn) [JTT-501]
EC50 [6]: 0.4 µM

CCO[C@@H](Cc1ccc(OCCN2c3ccccc3Oc3ccccc32)cc1)C(=O)O [NNC-61-0029]
EC50 [6]: 0.6 µM

Cc1cccc(Nc2cc(Cl)nc(SCC(=O)O)n2)c1C [WY-14643]
EC50 reporter gene assay [7]: no activity
EC50 reporter gene assay [8]: no activity

CCOC(Cc1ccc(OCCc2ccc(OS(C)(=O)=O)cc2)cc1)C(=O)OC1OC(C(=O)O)C(O)C(O)C1O (stereo not drawn) [acylglucuronide metabolite]
substrate of P-glycoprotein [9]: not substrates of P-glycoprotein
transport in Caco2 and MDCK-MDR1 monolayers [10]: apparently transported by multidrug resistance protein 2

CC(C)(Oc1ccc(CCNC(=O)c2ccc(Cl)cc2)cc1)C(=O)O [bezafibrate]
EC50 [11]: 24 µM
EC50 ([8]; read-out: EC50 reporter gene assay): 23 µM

CCc1ccc(CCOc2ccc(CC3SC(=O)NC3=O)cc2)nc1 (stereo not drawn) [pioglitazone]
rates of edema [12]: 4.2%
